Test results published in paper PMC6934184, “Selective DNA-PKcs inhibition extends the therapeutic index of localized radiotherapy and chemotherapy” (The Journal of Clinical Investigation, 2019).

Tested on: Calu-6 subcutaneous xenografts
Experiment: subcutaneous Calu-6 xenograft with tumor-localized irradiation
Assay type: in vivo, mouse
Conditions: for mean tumor volume: NU5455 30 mg/kg oral single dose 30 min before 3.3 Gy
Method: Subcutaneous non–small cell lung cancer xenografts were generated in CD-1 nude or BALB/c nude mice using A549 and Calu-6 cells, respectively, as previously described ([53]). When tumors reached 100 mm^3, mice were randomized into 4 groups (n = 7–9 per group) to receive (a) vehicle (orally) 30 minutes before mock radiation, (b) NU5455 (30 mg/kg orally) 30 minutes before mock radiation, (c) targeted tumor radiation at a single dose of 3.3 or 10 Gy, or (d) NU5455 (30 mg/kg orally) 30 minutes before 3.3 Gy or 10 Gy targeted tumor radiation. For targeted irradiation of subcutaneous tumors, anesthetized mice were restrained in a lead-shielded container with only the tumor exposed, and x-ray radiation applied using an RS320 irradiation system (Gulmay Medical) at a dose rate of 1.82 Gy/min.
Establishment of subcutaneous NSCLC xenograft models
NSCLC subcutaneous xenografts were generated as previously described ( 53). Briefly, 6-8 week-old female BALB/c nude or CD-1 nude mice (Charles River Laboratories) were anaesthetized with 2% isoflurane (Zoetis), and 5 x 10^6 Calu-6 or A549 cells in 50% Matrigel (BD Biosciences), respectively, were subcutaneously injected into a single site on the back of the mouse. Mouse weights and tumor volumes (1/2 x length x width x depth) were measured three times a week.
Targeted radiotherapy in subcutaneous and orthotopic NSCLC xenograft models When subcutaneous xenografts reached 100 mm3, mice were randomized into four groups (n = 7 - 11/group): (i) N-Methyl-2-pyrrolidone (NMP): 30% Encapsin : PEG400 (1:6:3 v/v/v) vehicle p.o. 30 minutes prior to mock radiation. (ii) NU5455 (30 mg/kg p.o.) 30 minutes prior to mock radiation. (iii) Targeted tumor radiation at a single dose of 3.3 or 10 Gy. (iv) NU5455 (30 mg/kg p.o.) 30 minutes prior to 3.3 Gy or 10 Gy targeted tumor radiation. For targeted irradiation of subcutaneous tumors, anaesthetized mice were restrained in a lead -shielded container with only the tumor exposed. X -ray radiation was applied using an RS320 irradiation system ( Gulmay Medical) at a dose rate of 1.82 Gy/minute. Three animals from each group were humanely killed at 5 and/or 24 hours after irradiation, and the tumors processed for immunohistochemistry (IHC). […]
Immunohistochemistry in lung tumor xenografts and normal lung tissue
Tissues were fixed in 4% paraformaldehyde (PFA) and paraffin -embedded. Sections were stained using primary antibodies against γH2AX (JBW301, 1:1000, Millipore #05-636), 53BP1 (1:500, Cell Signaling #4937), and cleaved caspase 3 (CC3, 1:600, Cell Signaling #9661) and the EnVision G2 Doublestain System (Dako #K5361), according to the manufacturer’s instructions. One tissue section from each of 3 mice per group was examined, and the whole

SMILES: CN(C(=O)CN1CCOCC1)c1ccc2sc3c(-c4cccc5c(=O)cc(N6CC7CCC(C6)O7)oc45)cccc3c2c1 [NU5455]
- adverse effect or impact on body weight (NU5455 30 mg/kg oral + 10 Gy): without any adverse effect or impact on body weight
- antitumor response (NU5455 30 mg/kg oral + 10 Gy): regression of Calu-6 tumors was induced
- mean tumor volume (day 0): 104 mm^3
- mean tumor volume (day 6): 102 mm^3
- mice having no evidence of tumor at the end of the experiment (day 38, NU5455 30 mg/kg oral + 10 Gy): 3 of 6
- radiation-induced γH2AX foci remaining, fold greater with concomitant NU5455 (tumor, 5 hours after 3.3 Gy, 30 mg/kg oral): 3.0 fold
